In patent US20260174682A1, “GAMMA-AMINOBUTYRIC ACID DERIVATIVE COMPRISING POLYCYCLIC STRUCTURE, METHOD FOR PREPARING SAME, AND USE THEREOF” (ZHONGSHAN INSTITUTE FOR DRUG DISCOVERY, SIMM, CAS., priority 2022, published 2026):
Marks after values point to notes of the source that are not given here.

How the values were obtained:
Format in all cases: in vivo
[1] = test system: mouse maximum electroshock model (MES); assay: Antiepileptic effect in mouse maximum electroshock model (MES); conditions: gavage; for Number of animals with tonic straightening of hind limbs/total number of detected animals / Protection rate (%): MES, ICR mice
Method: A negative vehicle control group, a positive drug control group (pregabalin and gabapentin) and a test group of the compounds of the present application were set. Male ICR mice with a body weight of […] were selected. […] After fasted for 12 h, the mice were administered the compounds of the present application or the control drugs according to the body weight, and then subjected to electrical stimulation to induce generalized tonic-clonic seizure behaviors after a certain lime interval (2 h for pregabalin, 1 h for gabapentin, and 3 h for the compounds of the present application). A YLS-9A electrophysiological stimulator (Shanghai Xinruan Information Technology Co., Ltd.) was used in an induction model, and parameters were set as follows: configuration 8, stimulation voltage 160 V, wave number 90. When the electrical stimulation was performed, ears on both sides of the mice were firstly wiped with normal saline and then given the electrical stimulation for 1 lime with ear clip electrodes. Tonic straightening of hind limbs was used as a standard for epilepsy seizures. The animals with the tonic straightening of hind limbs were regarded as not being protected by the drugs, and the animals without the tonic straightening of hind limbs were regarded as being protected by the drugs. Response situations of the animals were observed and recorded, and obtained data were counted to calculate protection rates of the compounds.
Median effective doses (ED50) of the compounds to be tested for animal protection were calculated by a least square method (Graphpad Prism 5) with an administration dose-protection rate curve.

[2] = test system: mouse 6-Hz psychomotor seizure model; assay: Antiepileptic effect in mouse 6-Hz psychomotor seizure model; conditions: 6-Hz model, C57BL/6 mice, gavage
Method: A negative vehicle control group, a positive drug control group (pregabalin and gabapentin) and a test group of the compounds of the present application were set. Male C57BL/6 mice with a body weight of 20±2 g were selected. […] After fasted for 12 h, the mice were administered the compounds of the present application or the control drugs, and then subjected to 6-Hz electrical stimulation to induce epilepsy seizure behaviors after a certain time interval (2 h for pregabalin, 1 h for gabapentin, 1 h for levetiracetam, and 3 h for the compounds of the present application). In an induction model, when the stimulation was performed with a Model 4100 stimulator (A-M Systems, the United States), rear necks of the mice were immobilized by hands on a feeding cage, a corneal electrode was moisten with normal saline and allowed to gently contact bilateral corneas of the mice, the electrical stimulator was trod by a foot to give the mice the electrical stimulation with a stimulation parameter of 6-Hz, a one-way square wave of 32 mA, a wave width of 0.2 ms and a stimulation duration of 3 sec, and timing was performed with a stopwatch during the stimulation. After the electrical stimulation was completed, the mice with the seizure behaviors lasting for less than 7 sec were regarded as being protected by the drugs, and the mice with the seizure behaviors lasting for more than 7 sec were regarded as being not protected from the epilepsy by the drugs. Response situations of the animals were observed and recorded, and obtained data were counted to calculate protection rates of the compounds.
Statistical method: The protection rates of different administration groups were separately compared with that of the vehicle control group to carry out a Fisher's exact test.

[3] = test system: mouse model with subcutaneous injection of pentylenetetrazole (sc-PTZ); assay: Antiepileptic effect in mouse model with subcutaneous injection of pentylenetetrazole (sc-PTZ); conditions: for Clonic seizure incidence / Convulsive seizure incidence / Generalized clonic seizure incidence / Mortality / Tonic seizure incidence: sc-PTZ 100 mg/kg, ICR mice, intraperitoneal 30 mg/kg (own compounds calculated by free base), 1 h observation; for latent periods of generalized clonic seizures, tonic seizures and death: 30 mg/kg (calculated by free base), FIG. 6
Method: A negative vehicle control group, a positive drug control group (pregabalin and gabapentin) and a test group of the compounds of the present application were set. Male ICR mice with a body weight of 22±2 g were selected. […] After fasted for 12 h, the mice were administered the compounds of the present application or the control drugs, and then subcutaneously injected with pentylenetetrazole (PTZ) to induce epilepsy seizure behaviors after a certain time interval (2 h for pregabalin, 1 h for gabapentin, and 3 h for the compounds of the present application). In an induction model, pentylenetetrazole (PTZ) was dissolved in normal saline and administered to the mice through the way of subcutaneous injection (10 mL/kg, administration dose 100 mg/kg). After the injection of PTZ, behavioral observations on the mice were conducted for 1 h, and the latent periods and numbers of the mice with convulsive seizures, clonic seizures, tonic seizures and death after the injection of PTZ were recorded.
Statistical method: Protection rates and mortality of different administration groups were separately compared with those of the vehicle control group to carry out a Fisher's exact test. The seizure time and the latent periods were analyzed by one-way ANOVA.

[4] = dose 3 mg/kg (own compounds calculated by free base)
[5] = dose 6 mg/kg (own compounds calculated by free base)
[6] = dose 10 mg/kg (own compounds calculated by free base)
[7] = dose 18 mg/kg (own compounds calculated by free base)
[8] = dose 30 mg/kg (own compounds calculated by free base)
[9] = dose 60 mg/kg (own compounds calculated by free base)
[10] = dose 60 mg/kg (calculated by free base)

Row | Compound | Number of animals with tonic straightening of hind limbs/total number of detected animals [1, 4] | Protection rate (%) [1, 4] [%] | Number of animals with tonic straightening of hind limbs/total number of detected animals [1, 5] | Protection rate (%) [1, 5] [%] | Number of animals with tonic straightening of hind limbs/total number of detected animals [1, 6] | Protection rate (%) [1, 6] [%] | Number of animals with tonic straightening of hind limbs/total number of detected animals [1, 7] | Protection rate (%) [1, 7] [%] | Number of animals with tonic straightening of hind limbs/total number of detected animals [1, 8] | Protection rate (%) [1, 8] [%] | Number of animals with tonic straightening of hind limbs/total number of detected animals [1, 9] | Protection rate (%) [1, 9] [%] | Clonic seizure incidence [3] | Convulsive seizure incidence [3] | Generalized clonic seizure incidence [3] | Mortality [3] | Tonic seizure incidence [3] | generalized clonic seizures (percent of animals; vehicle 100%) ([3]; sc-PTZ mice, 30 mg/kg) [%] | tonic seizure incidence (percent of animals; vehicle 75%) ([3]; sc-PTZ mice, 30 mg/kg) [%] | latent periods of generalized clonic seizures, tonic seizures and death ([3]; sc-PTZ mice) | further results
1 | Cc1ccc(S(=O)(=O)O)cc1.NCC1(CC(=O)O)CC2C3C=CC(C3)C21 (single isomer, unassigned; (+)) [(+)-I-4 p-toluenesulfonate] | 7/8 | 12.5 | 6/8 | 25 | 7/8 | 12.5 | 7/12 | 41.7 | 3/8 | 62.5 | 1/6 | 83.3 | 10/10 | 10/10 | 6/10 | 3/10 | 2/10 | 60 | 20 | significantly prolong | Median effective dose (ED50) for animal protection ([1]; MES mice, least square fit of administration dose-protection rate curve): 21.51 mg/kg; Number of animals with clonic seizures/total number [2, 10]: 2/4; Protection rate (%) [2, 10]: 50.0 * %
2 | CC(C)C[C@H](CN)CC(=O)O [Pregabalin] | 9/12 | 25 | 10/12 | 16.67 | 6/12 | 50 | 5/12 | 58.33 | 4/20 | 80 | 1/12 | 91.66 | 8/8 | 8/8 | 5/8 | 1/8* | 1/8** | 62.5 | 12.5 | significantly prolong | ED50 ([1]; Mus musculus, po, MES mice, least square fit of administration dose-protection rate curve, read-out: Median effective dose (ED50) for animal protection): 12 mg/kg; Number of animals with clonic seizures/total number ([2]; dose 30 mg/kg): 1/6**; Protection rate (%) ([2]; dose 30 mg/kg): 83.3 *** %; mortality (percent of animals; vehicle 75%) ([3]; sc-PTZ mice, 30 mg/kg): 12.5%
